Where “and” joins values, the source holds several entries; their conditions need not be identical. Equal values may be shown once. Where a name gives a salt, the structure may show the parent alone.
What was measured:
[1] = Butanol/water partitioning of dye salts (Example 2); conditions: for Absorbance of Base in Butanol: butanol layer; for Partition Ratio of Butanol Absorbance to Water Absorbance: corrected by intensity factor; for Absorbance of Base in Water: water layer
Experimental: The five dye solutions were then treated with 1 equivalent of each base listed in Tables 1-5 (i.e., sodium hydroxide, TRIS, and triethylamine) to form salt solutions (i.e., sodium salt solutions, TRIS salt solutions, and triethylamine salt solutions respectively).
A 50 μL portion of each salt solution was then mixed with 950 μL water and 1000 μL butanol. […] Where necessary to deal with lingering interface phases, the samples were centrifuged.
Tests were then performed on the respective salt solutions to determine whether the salts of the respective dyes dissolved preferentially in butanol (a more lipophilic solvent) or water (a less lipophilic solvent). […] Spectroscopy versus the butanol blank or the water blank was done as 50 μL upper (butanol) or lower (aqueous) phase plus 950 μL corresponding solvent. All absorbances were blanked on solvent in a quartz cuvette and were baseline corrected at an absorbance of 900 nm before subsequent calculations to correct for cuvette placement, dust, etc. All absorbances were then measured at the wavelengths noted below.
Before determining the butanol to water absorbance levels, the absorbance of the solute in butanol was corrected for solvent dependent shifts in wavelength maximum and intensity based on the reference spectra of known gravimetric quantities of the dye salts in butanol and water. For such cases, the partition ratio of butanol absorbance to water absorbance was calculated using the following formula: Partition Ratio=Sample Absorbance in Butanol×Intensity Factor/Sample Absorbance in Water where the intensity factor was calculated using the following formula: Intensity Factor=Reference Sample Absorbance at λmax in water/Reference Sample Absorbance at λmax in butanol The intensity factor adjusts for those cases where the same concentration of dye in the two different solvents produced two different absorbances.

[2] = system: Lambda Light Chain; experiment: Automated protein assay with pyrogallol red salts, 74 μM (Example 6); conditions: Series #1 and #2; for Percent Detection as Percentage of HSA Detection: Lambda Light Chain; for average net absorbance at 600 nm after subtracting PBS sample reaction result: Lambda Light Chain 25 mg/dL, 10 minutes, 37° C, 900 nm baseline subtracted
Experimental: (§1) The dilutor was programmed for reactions of 180 μL reagent+40 μL sample. […] The samples were phosphate buffered saline (blank), human serum albumin (HSA) 25 mg/dL, and other proteins (i.e., human IgG, […], and Lambda Light Chain) at 25 mg/dL. Absorbance data were collected on a Biotek, Powerwave X Microplate Absorbance reader using BioTek “KC Jr” software to determine the relative detection of the different proteins (i.e., HSA, human IgG, […], and Lambda Light Chain) using salts of pyrogallol red. Two sets of replicates of the different proteins were run. […] The protein response was determined by subtracting the phosphate buffered saline sample reaction result from the protein reaction result. […] The results for protein equivalence of the non-albumin proteins were expressed as a percentage of the protein colorimetric response to HSA as shown in Table 11 below.

[3] = target: human serum albumin (HSA) (Homo sapiens, UniProt P02768); experiment: as above; conditions: HSA 25 mg/dL; 10 minutes, 37° C; 900 nm baseline subtracted; Series #1 and #2
Experimental: The dilutor was programmed for reactions of 180 μL reagent+40 μL sample. […] The samples were phosphate buffered saline (blank), human serum albumin (HSA) 25 mg/dL, and other proteins (i.e., human IgG, […], and Lambda Light Chain) at 25 mg/dL. Absorbance data were collected on a Biotek, Powerwave X Microplate Absorbance reader using BioTek “KC Jr” software to determine the relative detection of the different proteins (i.e., HSA, human IgG, […], and Lambda Light Chain) using salts of pyrogallol red. Two sets of replicates of the different proteins were run. […] The protein response was determined by subtracting the phosphate buffered saline sample reaction result from the protein reaction result.

[4] = Butanol/water partitioning of pyrogallol red dye salts (Example 3); type: physicochemical; conditions: 276 nm; for Absorbance of Dye Salt in Butanol: butanol layer; for Absorbance of Dye Salt in Water: water layer
Experimental: Extractions were then performed in Mixxor extractors.

[5] = target: Tamm-Horsfall (Homo sapiens, UniProt P07911); experiment: Automated protein assay with pyrogallol red salts, 74 μM (Example 6); conditions: Series #1 and #2; for average net absorbance at 600 nm after subtracting PBS sample reaction result: Tamm-Horsfall 25 mg/dL, 10 minutes, 37° C, 900 nm baseline subtracted; for Percent Detection as Percentage of HSA Detection: Tamm-Horsfall
Experimental: as §1

[6] = system: human IgG; experiment: as above; conditions: Series #1 and #2; for average net absorbance at 600 nm after subtracting PBS sample reaction result: IgG 25 mg/dL, 10 minutes, 37° C, 900 nm baseline subtracted; for Percent Detection as Percentage of HSA Detection: IgG
Experimental: as §1

[7] = 8-anilino-1-sulfonic acid salts
[8] = 8-anilino-1-sulfonic acid salts, λmax 269 nm
[9] = 8-anilino-1-sulfonic acid salts, reference absorbance in water / in butanol
[10] = 8-anilino-1-sulfonic acid salts, λmax 265 nm
[11] = erythrosin salts, reference absorbance in water / in butanol
[12] = bromocresol green salts, λmax 630 nm
[13] = bromocresol green salts, reference absorbance in water / in butanol
[14] = bromocresol green salts, λmax 615 nm
[15] = rosolic acid salts, aqueous reference saturated with butanol
[16] = rosolic acid salts, λmax 562 nm
[17] = rosolic acid salts, λmax 547 nm, four times less dilute solution measured, absorbance divided by four

human serum albumin (HSA), sequence (P02768 25-609): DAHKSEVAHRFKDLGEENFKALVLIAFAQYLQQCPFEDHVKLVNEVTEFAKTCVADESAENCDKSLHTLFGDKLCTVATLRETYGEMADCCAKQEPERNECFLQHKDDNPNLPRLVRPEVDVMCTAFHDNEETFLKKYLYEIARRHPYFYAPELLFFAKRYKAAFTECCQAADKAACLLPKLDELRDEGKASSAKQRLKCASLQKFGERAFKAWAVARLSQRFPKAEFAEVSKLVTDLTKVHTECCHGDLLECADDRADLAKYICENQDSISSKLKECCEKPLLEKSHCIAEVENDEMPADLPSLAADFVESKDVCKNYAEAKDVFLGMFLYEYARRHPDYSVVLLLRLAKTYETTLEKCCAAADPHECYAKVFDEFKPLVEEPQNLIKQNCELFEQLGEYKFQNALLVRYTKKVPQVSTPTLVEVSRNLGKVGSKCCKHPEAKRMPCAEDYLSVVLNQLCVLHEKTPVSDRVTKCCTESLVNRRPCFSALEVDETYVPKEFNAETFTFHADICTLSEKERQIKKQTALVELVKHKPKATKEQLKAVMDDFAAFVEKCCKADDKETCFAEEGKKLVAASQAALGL

O=S(=O)(O)c1cccc2cccc(Nc3ccccc3)c12 [8-Anilino-1-Sulfonic Acid, TRIS, 8-anilino-1-sulfonic acid]
Raw Ratio of Butanol Absorbance to Water Absorbance [1, 7]: 2.6 | Absorbance of Base in Butanol [1, 8]: 0.129 | Partition Ratio of Butanol Absorbance to Water Absorbance [1, 7]: 2.3 | Intensity Factor (IF) [1, 9]: 0.89 | Absorbance of Base in Water [1, 10]: 0.050

O=C(O)c1ccccc1-c1c2cc(I)c(=O)c(I)c-2oc2c(I)c(O)c(I)cc12 [Erythrosin, Sodium Hydroxide, erythrosin B, reference compound]
Raw Ratio of Butanol Absorbance to Water Absorbance ([1]; erythrosin salts): 0.41 | Absorbance of Base in Butanol ([1]; erythrosin salts, λmax 536 nm): 0.237 | Partition Ratio of Butanol Absorbance to Water Absorbance ([1]; erythrosin salts): 0.38 | Intensity Factor (IF) [1, 11]: 0.93 | Absorbance of Base in Water ([1]; erythrosin salts, λmax 528 nm): 0.574

O=C(O)c1ccccc1-c1c2cc(I)c(=O)c(I)c-2oc2c(I)c(O)c(I)cc12 [Erythrosin, TRIS, erythrosin B]
Raw Ratio of Butanol Absorbance to Water Absorbance ([1]; erythrosin salts): 0.31 | Absorbance of Base in Butanol ([1]; erythrosin salts, λmax 536 nm): 0.196 | Partition Ratio of Butanol Absorbance to Water Absorbance ([1]; erythrosin salts): 0.28 | Intensity Factor (IF) [1, 11]: 0.90 | Absorbance of Base in Water ([1]; erythrosin salts, λmax 528 nm): 0.631

pyrogallol red [Glucamine Pyrogallol Red Salt]
Percent Detection as Percentage of HSA Detection [2]: 14%

O=S(=O)(O)c1cccc2cccc(Nc3ccccc3)c12 [8-Anilino-1-Sulfonic Acid, Sodium Hydroxide] [reference compound]
Raw Ratio of Butanol Absorbance to Water Absorbance [1, 7]: 1.9 | Absorbance of Base in Butanol [1, 8]: 0.121 | Partition Ratio of Butanol Absorbance to Water Absorbance [1, 7]: 1.8 | Intensity Factor (IF) [1, 9]: 0.98 | Absorbance of Base in Water [1, 10]: 0.065

O=c1ccc2c(-c3ccccc3S(=O)(=O)O)c3ccc(O)c(O)c3oc-2c1O [Triethylamine Pyrogallol Red Salt, pyrogallol red]
average net absorbance at 600 nm after subtracting PBS sample reaction result [3]: 0.0559 and 0.0600 | Ratio of Butanol Absorbance to Water Absorbance ([4]; Triethylamine): 0.23 | Absorbance of Dye Salt in Butanol ([4]; Triethylamine): 0.063 | Absorbance of Dye Salt in Water ([4]; Triethylamine): 0.274 | average net absorbance at 600 nm after subtracting PBS sample reaction result [5]: 0.0135 and 0.0109 | Percent Detection as Percentage of HSA Detection [5]: 22% and 19% | average net absorbance at 600 nm after subtracting PBS sample reaction result [6]: 0.0285 and 0.0284 | Percent Detection as Percentage of HSA Detection [6]: 48% and 51% | Percent Detection as Percentage of HSA Detection [2]: 3% and 9%

CC1=C(Br)C(=O)C(Br)=C/C1=C(/c1ccccc1S(=O)(=O)O)c1cc(Br)c(O)c(Br)c1C [Bromocresol Green, Triethylamine, bromocresol green]
Raw Ratio of Butanol Absorbance to Water Absorbance ([1]; bromocresol green salts): 2.4 | Absorbance of Base in Butanol [1, 12]: 0.237 | Partition Ratio of Butanol Absorbance to Water Absorbance ([1]; bromocresol green salts): 6.3 | Intensity Factor (IF) [1, 13]: 2.58 | Absorbance of Base in Water [1, 14]: 0.097

O=S(=O)(O)c1cccc2cccc(Nc3ccccc3)c12 [8-Anilino-1-Sulfonic Acid, Triethylamine, 8-anilino-1-sulfonic acid]
Raw Ratio of Butanol Absorbance to Water Absorbance [1, 7]: 3.4 | Absorbance of Base in Butanol [1, 8]: 0.156 | Partition Ratio of Butanol Absorbance to Water Absorbance [1, 7]: 3.5 | Intensity Factor (IF) [1, 9]: 1.01 | Absorbance of Base in Water [1, 10]: 0.045

O=C1C=CC(=C(c2ccc(O)cc2)c2ccc(O)cc2)C=C1 [Rosolic Acid, TRIS, rosolic acid]
Raw Ratio of Butanol Absorbance to Water Absorbance ([1]; rosolic acid salts): 17 | Intensity Factor (IF) [1, 15]: 1.07 | Absorbance of Base in Butanol [1, 16]: 0.055 | Partition Ratio of Butanol Absorbance to Water Absorbance ([1]; rosolic acid salts): 18 | Absorbance of Base in Water [1, 17]: 0.003

O=c1ccc2c(-c3ccccc3S(=O)(=O)O)c3ccc(O)c(O)c3oc-2c1O [Glucamine Pyrogallol Red Salt, pyrogallol red]
average net absorbance at 600 nm after subtracting PBS sample reaction result [3]: 0.0618 | Ratio of Butanol Absorbance to Water Absorbance ([4]; Glucamine): 0.09 | Absorbance of Dye Salt in Butanol ([4]; Glucamine): 0.030 | Absorbance of Dye Salt in Water ([4]; Glucamine): 0.328 | average net absorbance at 600 nm after subtracting PBS sample reaction result [5]: 0.0123 | Percent Detection as Percentage of HSA Detection [5]: 20% | average net absorbance at 600 nm after subtracting PBS sample reaction result [6]: 0.0318 | Percent Detection as Percentage of HSA Detection [6]: 51% | average net absorbance at 600 nm after subtracting PBS sample reaction result [2]: 0.0088 | Percent Detection as Percentage of HSA Detection [2]: 14%

CC1=C(Br)C(=O)C(Br)=C/C1=C(/c1ccccc1S(=O)(=O)O)c1cc(Br)c(O)c(Br)c1C [Bromocresol Green, Sodium Hydroxide, bromocresol green, reference compound]
Raw Ratio of Butanol Absorbance to Water Absorbance ([1]; bromocresol green salts): 1.8 | Absorbance of Base in Butanol [1, 12]: 0.315 | Partition Ratio of Butanol Absorbance to Water Absorbance ([1]; bromocresol green salts): 1.9 | Intensity Factor (IF) [1, 13]: 1.03 | Absorbance of Base in Water [1, 14]: 0.175

pyrogallol red [Triethylamine Pyrogallol Red Salt]
Percent Detection as Percentage of HSA Detection ([2]; listed as triethylammonium): 3%

O=C1C=CC(=C(c2ccc(O)cc2)c2ccc(O)cc2)C=C1 [Rosolic Acid, Triethylamine, rosolic acid]
Raw Ratio of Butanol Absorbance to Water Absorbance ([1]; rosolic acid salts): 12 | Intensity Factor (IF) [1, 15]: 0.94 | Absorbance of Base in Butanol [1, 16]: 0.077 | Partition Ratio of Butanol Absorbance to Water Absorbance ([1]; rosolic acid salts): 11 | Absorbance of Base in Water [1, 17]: 0.006

O=c1ccc2c(-c3ccccc3S(=O)(=O)O)c3ccc(O)c(O)c3oc-2c1O [Triethanolamine Salt, pyrogallol red]
Ratio of Butanol Absorbance to Water Absorbance ([4]; Triethanolamine): 0.15 | Absorbance of Dye Salt in Butanol ([4]; Triethanolamine): 0.044 | Absorbance of Dye Salt in Water ([4]; Triethanolamine): 0.296

O=C1C=CC(=C(c2ccc(O)cc2)c2ccc(O)cc2)C=C1 [Rosolic Acid, Sodium Hydroxide, rosolic acid, reference compound]
Raw Ratio of Butanol Absorbance to Water Absorbance ([1]; rosolic acid salts): 1.7 | Intensity Factor (IF) [1, 15]: 0.69 | Absorbance of Base in Butanol [1, 16]: 0.147 | Partition Ratio of Butanol Absorbance to Water Absorbance ([1]; rosolic acid salts): 1.2 | Absorbance of Base in Water [1, 17]: 0.085

O=C(O)c1ccccc1-c1c2cc(I)c(=O)c(I)c-2oc2c(I)c(O)c(I)cc12 [Erythrosin, Triethylamine, erythrosin B]
Raw Ratio of Butanol Absorbance to Water Absorbance ([1]; erythrosin salts): 0.40 | Absorbance of Base in Butanol ([1]; erythrosin salts, λmax 536 nm): 0.240 | Partition Ratio of Butanol Absorbance to Water Absorbance ([1]; erythrosin salts): 0.42 | Intensity Factor (IF) [1, 11]: 1.04 | Absorbance of Base in Water ([1]; erythrosin salts, λmax 528 nm): 0.596

CC1=C(Br)C(=O)C(Br)=C/C1=C(/c1ccccc1S(=O)(=O)O)c1cc(Br)c(O)c(Br)c1C [Bromocresol Green, TRIS, bromocresol green]
Raw Ratio of Butanol Absorbance to Water Absorbance ([1]; bromocresol green salts): 1.7 | Absorbance of Base in Butanol [1, 12]: 0.250 | Partition Ratio of Butanol Absorbance to Water Absorbance ([1]; bromocresol green salts): 4.2 | Intensity Factor (IF) [1, 13]: 2.47 | Absorbance of Base in Water [1, 14]: 0.146

O=c1ccc2c(-c3ccccc3S(=O)(=O)O)c3ccc(O)c(O)c3oc-2c1O [TRIS Pyrogallol Red Salt, pyrogallol red]
average net absorbance at 600 nm after subtracting PBS sample reaction result [3]: 0.0750 | Ratio of Butanol Absorbance to Water Absorbance ([4]; TRIS): 0.13 | Absorbance of Dye Salt in Butanol ([4]; TRIS): 0.041 | Absorbance of Dye Salt in Water ([4]; TRIS): 0.326 | average net absorbance at 600 nm after subtracting PBS sample reaction result [5]: 0.0175 | Percent Detection as Percentage of HSA Detection [5]: 23% | average net absorbance at 600 nm after subtracting PBS sample reaction result [6]: 0.0410 | Percent Detection as Percentage of HSA Detection [6]: 55% | average net absorbance at 600 nm after subtracting PBS sample reaction result [2]: 0.0030 | Percent Detection as Percentage of HSA Detection [2]: 4%
